Results taken from article PMC4957640 (Bioorganic & medicinal chemistry, 2016).

What was measured:
Format in all cases: biochemical
[1] = molecular target: cloned human μ opioid receptor (MOR) (Homo sapiens, UniProt P35372); experiment: Inhibition of DAMGO-stimulated [35S]GTPγS binding
[2] = molecular target: cloned human δ opioid receptor (DOR) (Homo sapiens, UniProt P41143); experiment: Inhibition of DPDPE-stimulated [35S]GTPγS binding
[3] = molecular target: cloned human κ opioid receptor (KOR) (Homo sapiens, UniProt P41145); experiment: Inhibition of U69,593-stimulated [35S]GTPγS binding; conditions: for δ/κ: ratio of Ke values, selectivity for KOR relative to DOR (fold)
Chain of cloned human κ opioid receptor (KOR) (P41145 whole entry): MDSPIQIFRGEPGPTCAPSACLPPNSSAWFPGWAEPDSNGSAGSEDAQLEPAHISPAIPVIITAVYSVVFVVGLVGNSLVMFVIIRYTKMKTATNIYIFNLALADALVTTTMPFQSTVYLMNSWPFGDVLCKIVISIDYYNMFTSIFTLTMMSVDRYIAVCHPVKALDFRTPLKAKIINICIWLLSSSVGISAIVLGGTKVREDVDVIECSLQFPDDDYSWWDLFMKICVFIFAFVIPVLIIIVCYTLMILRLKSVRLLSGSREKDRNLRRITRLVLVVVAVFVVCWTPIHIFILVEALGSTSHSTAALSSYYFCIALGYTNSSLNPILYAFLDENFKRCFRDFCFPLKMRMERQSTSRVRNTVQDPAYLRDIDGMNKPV

Chain of cloned human μ opioid receptor (MOR) (P35372 whole entry): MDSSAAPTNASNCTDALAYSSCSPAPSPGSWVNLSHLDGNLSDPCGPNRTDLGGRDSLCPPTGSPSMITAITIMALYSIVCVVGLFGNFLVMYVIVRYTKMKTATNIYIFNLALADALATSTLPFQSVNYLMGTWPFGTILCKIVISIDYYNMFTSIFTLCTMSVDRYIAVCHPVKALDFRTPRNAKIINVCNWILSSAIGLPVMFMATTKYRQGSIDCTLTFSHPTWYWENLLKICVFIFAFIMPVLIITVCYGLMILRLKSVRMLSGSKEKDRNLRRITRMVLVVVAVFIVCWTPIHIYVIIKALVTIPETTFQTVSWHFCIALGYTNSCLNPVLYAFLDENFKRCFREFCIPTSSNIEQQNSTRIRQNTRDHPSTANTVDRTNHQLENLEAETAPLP
Chain of cloned human δ opioid receptor (DOR) (P41143 whole entry): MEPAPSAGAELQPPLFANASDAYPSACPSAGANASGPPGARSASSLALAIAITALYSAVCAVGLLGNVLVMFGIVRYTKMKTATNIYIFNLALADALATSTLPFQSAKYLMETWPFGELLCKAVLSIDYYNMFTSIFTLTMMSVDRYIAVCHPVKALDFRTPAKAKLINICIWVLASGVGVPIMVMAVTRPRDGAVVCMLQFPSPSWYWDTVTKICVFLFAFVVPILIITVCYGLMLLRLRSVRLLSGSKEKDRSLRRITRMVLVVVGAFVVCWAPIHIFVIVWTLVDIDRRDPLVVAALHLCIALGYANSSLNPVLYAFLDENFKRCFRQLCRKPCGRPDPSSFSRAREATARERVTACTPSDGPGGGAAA

Row | Compound | Kb [1] [µM] | Kb [2] [µM] | Kb [3] [µM] | δ/κ [3]
1 | CC(C)[C@@H](CN1CCC(c2ccccn2)CC1)NC(=O)[C@H]1Cc2ccc(O)cc2CN1 [Compound 2, (3R)-7-Hydroxy-N-{(1S)-2-methyl-1-[(4-pyridin-2-ylpiperidin-1-yl)methyl]propyl}-1,2,3,4-tetrahydroisoquinoline-3-carboxamide] | 0.0145 ± 0.0026 | 0.59 ± 0.13 | 0.00043 ± 0.00012 | 1,372
2 | CC(C)[C@@H](CN1CCC(c2cccnc2)CC1)NC(=O)[C@H]1Cc2ccc(O)cc2CN1 [Compound 3a, (3R)-7-Hydroxy-N-{(1S)-2-methyl-1-[(4-pyridin-3-ylpiperidin-1-yl)methyl]propyl}-1,2,3,4-tetrahydroisoquinoline-3-carboxamide] | 0.0454 ± 0.015 | 1.14 ± 0.07 | 0.00051 ± 8e-05 | 2,235
3 | CC(C)[C@@H](CN1CCC(C)(c2cccnc2)CC1)NC(=O)[C@H]1Cc2ccc(O)cc2CN1 [Compound 3b, (3R)-7-Hydroxy-N-{(1S)-2-methyl-1-[(4-methyl-4-pyridin-3-ylpiperidin-1-yl)methyl]propyl}-1,2,3,4-tetrahydroisoquinoline-3-carboxamide] | 0.0492 ± 0.014 | > 3 | 0.00018 ± 1e-05 | >16,700
4 | CC(C)[C@@H](CN1CCC(c2ccncc2)CC1)NC(=O)[C@H]1Cc2ccc(O)cc2CN1 [Compound 4a, (3R)-7-Hydroxy-N-{(1S)-2-methyl-1-[(4-pyridin-4-ylpiperidin-1-yl)methyl]propyl}-1,2,3,4-tetrahydroisoquinoline-3-carboxamide] | 0.0571 ± 0.015 | 0.69 ± 0.25 | 0.00051 ± 0.00014 | 1,353
5 | CC(C)[C@@H](CN1CCC(C)(c2ccncc2)CC1)NC(=O)[C@H]1Cc2ccc(O)cc2CN1 [Compound 4b, (3R)-7-Hydroxy-N-{(1S)-2-methyl-1-[(4-methyl-4-pyridin-4-ylpiperidin-1-yl)methyl]propyl}-1,2,3,4-tetrahydroisoquinoline-3-carboxamide] | 0.154 ± 0.056 | 2.51 | 0.00175 ± 0.00065 | 1,434
